Data as given in article PMC3537848 (Cancer research, 2012).
Changes are numbered by the printed parent chain.

Tests used:
[1] = target: T1, Retinoid X receptor-α (RXRα) (Homo sapiens, UniProt P19793); experiment: Gal4-RXRα-LBD luciferase reporter in CV-1 cells; type: cell-based
T1 sequence (P19793 198-462): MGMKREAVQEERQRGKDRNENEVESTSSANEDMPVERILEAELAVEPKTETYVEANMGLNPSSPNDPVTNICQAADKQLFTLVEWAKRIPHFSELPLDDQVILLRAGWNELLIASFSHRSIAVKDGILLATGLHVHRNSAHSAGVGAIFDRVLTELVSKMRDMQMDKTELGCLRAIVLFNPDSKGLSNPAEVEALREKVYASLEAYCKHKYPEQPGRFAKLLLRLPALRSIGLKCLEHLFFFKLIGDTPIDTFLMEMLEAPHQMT

[2] = target: T2, Retinoid X receptor-α (RXRα) (Homo sapiens, UniProt P19793, R316E); experiment: Gal4 luciferase reporter in CV-1 cells; type: cell-based
T2 sequence (P19793 198-462 R316E): T1 sequence (P19793 198-462) with R119E

[3] = target: T2, Retinoid X receptor-α (RXRα); experiment: Gal4 luciferase reporter in CV-1 cells, antagonism of CD3254; type: cell-based
[4] = target: T3, Retinoid X receptor-α (RXRα) (Homo sapiens, UniProt P19793); experiment: radioligand competition with [3H]-9-cis-RA; type: binding
T3 sequence (P19793 223-462 limits assumed): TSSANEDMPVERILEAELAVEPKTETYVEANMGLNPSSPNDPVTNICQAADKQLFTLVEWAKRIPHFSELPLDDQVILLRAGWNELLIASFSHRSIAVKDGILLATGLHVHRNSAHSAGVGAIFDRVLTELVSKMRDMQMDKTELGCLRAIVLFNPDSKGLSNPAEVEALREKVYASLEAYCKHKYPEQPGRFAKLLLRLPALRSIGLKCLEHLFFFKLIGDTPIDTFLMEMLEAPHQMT

Cc1cc2c(cc1-c1cc(/C=C/C(=O)O)ccc1O)C(C)(C)CCC2(C)C [CD3254]
Gal4-RXRα-LBD luciferase reporter in CV-1 cells (agonist) [1]: CD3254 strongly induced Gal4-RXRα/LBD activity, which was comparable to that induced by 9-cis-RA
Gal4 luciferase reporter in CV-1 cells (agonist) [2]: CD3254 could still activate the RXRα/R316E mutant

CC(C)=CCC/C(C)=C/Cc1c(O)c(O)cc2c(=O)c3c(O)c(CC=C(C)C)c(O)cc3oc12 [CF31, 1,3,6,7-tetrahydroxy-2-(3-methyl-2-butenyl)-5-(3,7-dimethyl-2,6-octadienyl)xanthone]
Gal4 luciferase reporter in CV-1 cells, antagonism of CD3254 [3]: CD3254-induced reporter activity was potently inhibited by CF31 in a dose dependent manner (Fig. 2C)
IC50 [4]: 9.6 µM
